According to PMC8000592, “Discovery and Optimization of Selective Inhibitors of Meprin α (Part I)” (Pharmaceuticals, 2021):
Where two headings read alike, the source gives them in different places. Peptide text beside a SMILES is read from it. * marks the point of attachment. Dnp = O=[N+]([O-])c1ccc(*)c([N+](=O)[O-])c1; Mca = COc1ccc2c(CC(=O)*)cc(=O)oc2c1

What was measured:
[1] = molecular target: T1, meprin α (Homo sapiens, UniProt Q16819); test: Meprin α assay, fluorogenic substrate (Mca)-YVADAPK-(K-ε-Dnp), 384 and 1536 well plate formats; format: biochemical
T1 sequence (Q16819 66-593 limits assumed): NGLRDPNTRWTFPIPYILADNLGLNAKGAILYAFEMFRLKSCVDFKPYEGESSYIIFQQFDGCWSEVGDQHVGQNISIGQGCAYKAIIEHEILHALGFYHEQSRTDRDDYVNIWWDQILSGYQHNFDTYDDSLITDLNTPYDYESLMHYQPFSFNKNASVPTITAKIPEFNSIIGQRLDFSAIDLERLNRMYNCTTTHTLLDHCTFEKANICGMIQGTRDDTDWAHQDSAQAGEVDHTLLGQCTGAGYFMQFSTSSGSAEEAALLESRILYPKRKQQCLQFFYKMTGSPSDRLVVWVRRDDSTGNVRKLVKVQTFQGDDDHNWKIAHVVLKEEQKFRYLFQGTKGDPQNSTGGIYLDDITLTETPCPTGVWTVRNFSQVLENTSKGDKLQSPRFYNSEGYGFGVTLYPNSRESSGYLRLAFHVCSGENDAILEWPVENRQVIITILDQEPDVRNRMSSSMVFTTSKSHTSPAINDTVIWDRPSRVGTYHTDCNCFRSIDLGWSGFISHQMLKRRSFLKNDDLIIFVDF
From the text: (§1) The meprin α and meprin β assays, which utilize the substrates (Mca)-YVADAPK-(K-ε-Dnp) and (Mca)-EDEDED-(K-ε-Dnp), respectively, have been described previously. To enable an ultra-high-throughput screening (uHTS) campaign, we proceeded to miniaturize both assays to 1536 well plate format (wpf). First, we recapitulated the assays in 1536 well plate using reagents at the same concentrations as in 384 well plate format assays by scaling the volume down by the factor of 2.5.
(§2) Both assays followed the same general protocol. A 5 µL measure of 2 × enzyme solution (2.6 and 0.1 nM for meprin α and meprin β, respectively) in assay buffer (50 mM Hepes, 0.01% Brij-35, pH 7.5) was added to solid bottom black 384 low volume plates (Nunc, cat# 264705). Next, 75 nL of test compounds or pharmacological control (actinonin or NFF449) were added to corresponding wells using a 384-pin tool device (V&P Scientific, San Diego, CA, USA). After 30 min incubation at RT, the reactions were started by addition of 5 µL of 2 × solutions of substrates (20 µM, mepin α substrate Mca-YVADAPK-K(Dnp) or meprin β substrate Mca-EDEDED-K(Dnp)). Reactions were incubated at RT for 1 h, after which the fluorescence was measured using the Synergy H4 multimode microplate reader (Biotek Instruments) (λexcitation = 324 nm, λemission = 390 nm).
(§3) Both assays followed the same general protocol. A 2 µL portion of 2 × enzyme solution (1.3 and 0.0125 nM for meprin α and meprin β, respectively) in assay buffer (50 mM Hepes, 0.01% Brij-35, pH 7.5) was added to solid bottom black 1536 low volume plates (Corning cat# 7261). Next, 30 nL of test compounds or pharmacological control (actinonin or NFF449) was added to corresponding wells using a 1536 pin tool device (V&P Scientific, San Diego). After 30 min incubation at RT, the reactions were started by addition of 2 µL of 2x solutions of substrates (20 µM, meprin α substrate Mca-YVADAPK-K(Dnp) or meprin β substrate Mca-EDEDED-K(Dnp)). Reactions were incubated at RT for 1 h, after which the fluorescence was measured using the Viewlux multimode microplate reader (Perkin Elmer) (λexcitation = 324 nm, λemission = 390 nm).
(§4) The miniaturized 1536-well plate format meprin α and meprin β assays were used to screen a collection of approximately 650,000 compounds (The Scripps Research library, La Jolla, CA, USA) on the automated Kalypsys/GNF platform at The Scripps Research Molecular Screening Center (SRMSC, Jupiter, FL, USA: http://hts.florida.scripps.edu/). Both uHTS campaigns were run separately but in a similar manner. Briefly, the first step was the primary screen of all test compounds as singlicates against the meprin α and meprin β target at a final concentration of 7.0 μM. Next, compounds selected as primary hits were cherry-picked and retested in triplicate against the primary screen target and its antitarget (meprin α for the meprin β screening effort, and vice versa) at a same final concentration of 7.0 μM. The additional counter screen assays against related metzincins (MMP-8, MMP-14, and ADAM10) were performed in triplicate at a final concentration of 7.0 μM. The final step was the titration of selected hits as 10-point, 1:3 serial dilutions in both the target and antitarget assay, starting at a final nominal concentration of 17 μM. […] Wells treated with DMSO only were used as negative controls and 0% inhibition reference. […] All data generated during this effort were uploaded to the SRMSC’s institutional screening database (Assay Explorer, Symyx). Sample to background (S/B) ratios, as well as Z and Z’ values, were calculated on a per plate basis as described 14. Curve fitting and resulting IC50 determinations were performed as previously reported.

[2] = molecular target: T2, meprin β (Homo sapiens, UniProt Q16820); test: Meprin β assay, fluorogenic substrate (Mca)-EDEDED-(K-ε-Dnp), 384 and 1536 well plate formats; format: biochemical; conditions: read-out: IC50
T2 sequence (Q16820 62-594 limits assumed): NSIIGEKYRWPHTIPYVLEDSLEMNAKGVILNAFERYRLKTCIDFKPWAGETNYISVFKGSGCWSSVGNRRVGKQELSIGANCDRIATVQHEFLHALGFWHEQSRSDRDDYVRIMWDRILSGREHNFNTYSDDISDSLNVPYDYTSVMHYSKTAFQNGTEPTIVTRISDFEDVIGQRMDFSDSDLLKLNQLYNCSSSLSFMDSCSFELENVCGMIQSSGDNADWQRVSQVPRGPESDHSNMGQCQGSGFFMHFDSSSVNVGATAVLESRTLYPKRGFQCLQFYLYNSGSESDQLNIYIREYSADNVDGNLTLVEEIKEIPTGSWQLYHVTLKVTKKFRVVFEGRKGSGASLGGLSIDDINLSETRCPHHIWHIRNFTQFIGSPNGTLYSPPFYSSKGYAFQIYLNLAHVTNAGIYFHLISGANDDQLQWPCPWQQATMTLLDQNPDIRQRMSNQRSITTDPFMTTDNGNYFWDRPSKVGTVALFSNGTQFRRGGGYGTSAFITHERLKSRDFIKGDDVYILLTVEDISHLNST
From the text: as §1, §2, §3, §4

[3] = tested on: meprin α; conditions: cited from earlier work
[4] = tested on: meprin β; conditions: cited from earlier work
[5] = tested on: MMP and ADAM; conditions: cited from earlier work; for effect on MMP and ADAM activity: 200 µM inhibitor
[6] = molecular target: T1, meprin α; test: Kinetic parameters of meprin α mediated proteolysis of its substrate; format: biochemical; conditions: proteolysis by meprin α, 25 °C
Procedure: Next, we performed substrate optimization to achieve balanced assay conditions defined as [S]/KM = 1 [19]. In order to do that, we first determined kinetic parameters of proteolysis of meprin α and meprin β substrates by the respective enzymes (Figure 4A,B). […] To optimize substrate concentrations, both assays were run for 90 min at three different substrate concentrations (10, 5, and 2.5 µM) which included the concentration at which the assays were recapitulated in 1536 wpf (10 µM for both meprin α and meprin β) and the concentration approximating [S]/KM = 1 condition (2.5 µM). Enzyme concentrations were fixed at 1.3 nM for meprin α and 0.0125 nM for meprin β. […]
Substrate stock solutions were prepared at various concentrations in HTS assay buffer (50 mM Hepes, 0.01% Brij-35, pH 7.5). […] Fluorescence was measured on a multimode microplate reader Synergy H1 (Biotek Instruments, Winooski, VT, USA) using λexcitation = 324 nm and λemission = 393 nm. Rates of hydrolysis were obtained from plots of fluorescence versus time, using data points from only the linear portion of the hydrolysis curve. The slope from these plots was divided by the fluorescence change corresponding to complete hydrolysis and then multiplied by the substrate concentration to obtain rates of hydrolysis in units of μM/s. […]

Molecule `CCCCC[C@H](CC(=O)NO)C(=O)N[C@H](C(=O)N1CCC[C@H]1CO)C(C)C` [Actinonin, actinonin] has an increased apparent potency ([1]; 2.5 µM substrate condition) of 2 fold, an IC50 ([1]; 1536 wpf, 1.3 nM enzyme, substrate 2.5uM, time 30 min, read-out: Actinonin IC50) of 3 nM and an IC50 ([1]; 1536 wpf, 1.3 nM enzyme, substrate 2.5uM, time 60 min, read-out: Actinonin IC50) of 3.4 nM. It also gave an IC50 ([1]; 1536 wpf, 1.3 nM enzyme, substrate 5uM, time 30 min, read-out: Actinonin IC50) of 3.2 nM, an IC50 ([1]; 1536 wpf, 1.3 nM enzyme, substrate 10uM, time 30 min, read-out: Actinonin IC50) of 5.4 nM and an IC50 ([1]; 1536 wpf, 1.3 nM enzyme, substrate 10uM, time 60 min, read-out: Actinonin IC50) of 6.4 nM. For the same molecule, the IC50 ([1]; 1536 wpf, 1.3 nM enzyme, substrate 10uM, time 90 min, read-out: Actinonin IC50) was 6.9 nM, the IC50 ([1]; 1536 wpf, enzyme 0.32nM, time 30 min, read-out: Actinonin IC50) was 5.18 nM and the IC50 ([1]; 1536 wpf, enzyme 0.32nM, time 60 min, read-out: Actinonin IC50) was 5.54 nM. It also gave an IC50 ([1]; 1536 wpf, enzyme 0.32nM, time 90 min, read-out: Actinonin IC50) of 5.83 nM, an IC50 ([1]; 1536 wpf, enzyme 0.65nM, time 30 min, read-out: Actinonin IC50) of 4.11 nM and an IC50 ([1]; 1536 wpf, enzyme 0.65nM, time 60 min, read-out: Actinonin IC50) of 4.99 nM. It also gave an IC50 ([1]; 1536 wpf, enzyme 0.65nM, time 90 min, read-out: Actinonin IC50) of 5.2 nM, an IC50 ([1]; 1536 wpf, enzyme 1.3nM, time 30 min, read-out: Actinonin IC50) of 4.84 nM and an IC50 ([1]; 1536 wpf, enzyme 1.3nM, time 60 min, read-out: Actinonin IC50) of 5.94 nM. It also gave an IC50 ([1]; 1536 wpf, enzyme 1.3nM, time 90 min, read-out: Actinonin IC50) of 6.33 nM, an IC50 ([1]; Meprin α 384 wpf, read-out: IC50) of 11 nM and an IC50 ([1]; Meprin α 1536 wpf, read-out: IC50) of 5.7 nM. It also gave an IC50 ([1]; control compound in primary HTS campaign, n = 11 plates, read-out: IC50) of 2.9 ± 0.12 nM, an IC50 ([2]; Meprin β 384 wpf) of 22000 nM and an IC50 ([2]; Meprin β 1536 wpf) of 9750 nM.
In the case of `O=C(CN(Cc1ccc(F)c(O)c1F)Cc1ccc(F)c(O)c1F)NO` [Compound 8h], the IC50 ([3]; read-out: IC50 meprin α) is listed as 626 nM, the “selective against meprin α” value [4] is listed as 27 fold and the IC50 ([4]; read-out: IC50 meprin β) is listed as 23 nM. The “effect on MMP and ADAM activity” value [5] was “only limited effect”.
For `O=C(CN(Cc1ccc(Cl)c(O)c1F)Cc1ccc(Cl)c(O)c1F)NO` [Compound 8i], the IC50 ([3]; read-out: IC50 meprin α) is given as 368 nM, the “selective against meprin α” value [4] is given as 15 fold and the IC50 ([4]; read-out: IC50 meprin β) is given as 24 nM. For the same molecule, the “effect on MMP and ADAM activity” value [5] was “only limited effect”.
In the case of `O=C(CCN(CCc1ccc2c(c1)OCCO2)CCc1ccc2c(c1)OCCO2)NO` [Compound 10d], the “selectivity against meprin β (Selectivity Fold)” value [3] is given as 18 fold, the IC50 ([3]; read-out: Meprin α IC50) is given as 160 nM and the IC50 ([4]; read-out: Meprin β IC50) is given as 2950 nM.
For `O=C(CCN(CCc1ccc2c(c1)OCO2)CCc1ccc2c(c1)OCO2)NO` [Compound 10e], the “selectivity against meprin β (Selectivity Fold)” value [3] is given as 19 fold, the IC50 ([3]; read-out: Meprin α IC50) is given as 400 nM and the IC50 ([4]; read-out: Meprin β IC50) is given as 7590 nM.
In the case of `O=C(CN(Cc1cccc(C(=O)O)c1)S(=O)(=O)c1cccc(C(=O)O)c1)NO` [Compound 11g], the IC50 ([3]; read-out: IC50 meprin α) is given as 2740 nM, the “selectivity against meprin α” value [4] is given as 46 fold and the IC50 ([4]; read-out: IC50 meprin β) is given as 60 nM. The “selectivity against adamalysins and matrixins” value [5] was “good selectivity”.
For `Cc1nc(/N=N/c2cc(S(=O)(=O)O)c3cc([N+](=O)[O-])cc(S(=O)(=O)O)c3c2)c(COP(=O)(O)O)c(C=O)c1O` [PPNDS], the Ki [4] is given as 8 nM.
With `COc1ccc2c(CC(=O)N[C@@H](Cc3ccc(O)cc3)C(=O)N[C@H](C(=O)N[C@@H](C)C(=O)N[C@@H](CC(=O)O)C(=O)N[C@@H](C)C(=O)N3CCC[C@H]3C(=O)N[C@@H](CCCCN)C(=O)N[C@@H](CCCCNc3ccc([N+](=O)[O-])cc3[N+](=O)[O-])C(N)=O)C(C)C)cc(=O)oc2c1` [meprin α substrate, (Mca)-YVADAPK-(K-ε-Dnp)] (Mca-YVADAPKK(Dnp)-NH2) the Km [6] was 2.4 ± 0.3 µM.
